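Following 48 hours of exposure in 96-well plates, responses at five concentrations were used to interpolate endpoints linearly. Definition used: TGI = concentration required for complete inhibition of growth.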
What was measured:
Assay in all cases: growth of human tumour cells (NCI), 48 h
UACC-257 melanoma = test system: UACC-257 melanoma
DMS 114 small cell lung = test system: DMS 114 small cell lung
HOP-62 NSCLC = test system: HOP-62 NSCLC
MALME-3M melanoma = test system: MALME-3M melanoma
IGROV1 ovarian = test system: IGROV1 ovarian
HCC-2998 colon = test system: HCC-2998 colon
LOX IMVI melanoma = test system: LOX IMVI melanoma
M14 melanoma = test system: M14 melanoma
RPMI-8226 leukemia = test system: RPMI-8226 leukemia
OVCAR-8 ovarian = test system: OVCAR-8 ovarian
U251 CNS = test system: U251 CNS
KM12 colon = test system: KM12 colon
SF-268 CNS = test system: SF-268 CNS
SNB-19 CNS = test system: SNB-19 CNS
OVCAR-4 ovarian = test system: OVCAR-4 ovarian
UO-31 renal = test system: UO-31 renal
A498 renal = test system: A498 renal
NCI-H522 lung = test system: NCI-H522 lung
XF 498 CNS = test system: XF 498 CNS
UACC-62 melanoma = test system: UACC-62 melanoma
DMS 273 small cell lung = test system: DMS 273 small cell lung
SK-MEL-28 melanoma = test system: SK-MEL-28 melanoma
NCI-H23 lung = test system: NCI-H23 lung
SW-620 colon = test system: SW-620 colon
A549 NSCLC = test system: A549 NSCLC
TK-10 renal = test system: TK-10 renal
M19-MEL melanoma = test system: M19-MEL melanoma
COLO 205 colon = test system: COLO 205 colon
SNB-75 CNS = test system: SNB-75 CNS
NCI-H460 lung = test system: NCI-H460 lung
SF-539 CNS = test system: SF-539 CNS
HCT-116 colon = test system: HCT-116 colon
RXF-631 renal = test system: RXF-631 renal
KM20L2 colon = test system: KM20L2 colon
SF-295 CNS = test system: SF-295 CNS
K-562 leukemia = test system: K-562 leukemia
HT29 colon = test system: HT29 colon
CAKI-1 renal = test system: CAKI-1 renal
NCI-H226 lung = test system: NCI-H226 lung
SK-MEL-2 melanoma = test system: SK-MEL-2 melanoma
786-0 renal = test system: 786-0 renal
ACHN renal = test system: ACHN renal
SN12C renal = test system: SN12C renal
HCT-15 colon = test system: HCT-15 colon
MOLT-4 leukemia = test system: MOLT-4 leukemia
SK-OV-3 ovarian = test system: SK-OV-3 ovarian
DLD-1 colon = test system: DLD-1 colon
OVCAR-3 ovarian = test system: OVCAR-3 ovarian
HOP-92 NSCLC = test system: HOP-92 NSCLC
LXFL 529 NSCLC = test system: LXFL 529 NSCLC
HL-60(TB) leukemia = test system: HL-60(TB) leukemia
CCRF-CEM leukemia = test system: CCRF-CEM leukemia
SNB-78 CNS = test system: SNB-78 CNS
OVCAR-5 ovarian = test system: OVCAR-5 ovarian
RXF 393 renal = test system: RXF 393 renal
EKVX NSCLC = test system: EKVX NSCLC
SR leukemia = test system: SR leukemia
HOP-18 NSCLC = test system: HOP-18 NSCLC
SK-MEL-5 melanoma = test system: SK-MEL-5 melanoma

O=CN/C=C/c1ccc(O)c(O)c1
TGI (UACC-257 melanoma): > 100 µM
TGI (DMS 114 small cell lung): > 100 µM
TGI (HOP-62 NSCLC): > 100 µM
TGI (MALME-3M melanoma): > 100 µM
TGI (IGROV1 ovarian): > 100 µM
TGI (HCC-2998 colon): > 100 µM
TGI (LOX IMVI melanoma): > 100 µM
TGI (M14 melanoma): > 100 µM
TGI (RPMI-8226 leukemia): > 100 µM
TGI (OVCAR-8 ovarian): > 100 µM
TGI (U251 CNS): > 100 µM
TGI (KM12 colon): > 100 µM
TGI (SF-268 CNS): > 100 µM
TGI (SNB-19 CNS): > 100 µM
TGI (OVCAR-4 ovarian): > 100 µM
TGI (UO-31 renal): > 100 µM
TGI (A498 renal): > 100 µM
TGI (NCI-H522 lung): > 100 µM
TGI (XF 498 CNS): > 100 µM
TGI (UACC-62 melanoma): > 100 µM
TGI (DMS 273 small cell lung): > 100 µM
TGI (SK-MEL-28 melanoma): > 100 µM
TGI (NCI-H23 lung): > 100 µM
TGI (SW-620 colon): > 100 µM
TGI (A549 NSCLC): > 100 µM
TGI (TK-10 renal): > 100 µM
TGI (M19-MEL melanoma): > 100 µM
TGI (COLO 205 colon): > 100 µM
TGI (SNB-75 CNS): > 100 µM
TGI (NCI-H460 lung): > 100 µM
TGI (SF-539 CNS): > 100 µM
TGI (HCT-116 colon): > 100 µM
TGI (RXF-631 renal): > 100 µM
TGI (KM20L2 colon): > 100 µM
TGI (SF-295 CNS): > 100 µM
TGI (K-562 leukemia): > 100 µM
TGI (HT29 colon): > 100 µM
TGI (CAKI-1 renal): > 100 µM
TGI (NCI-H226 lung): > 100 µM
TGI (SK-MEL-2 melanoma): > 100 µM
TGI (786-0 renal): > 100 µM
TGI (ACHN renal): > 100 µM
TGI (SN12C renal): > 100 µM
TGI (HCT-15 colon): > 100 µM
TGI (MOLT-4 leukemia): > 100 µM
TGI (SK-OV-3 ovarian): > 100 µM
TGI (DLD-1 colon): > 100 µM
TGI (OVCAR-3 ovarian): > 100 µM
TGI (HOP-92 NSCLC): > 100 µM
TGI (LXFL 529 NSCLC): > 100 µM
TGI (HL-60(TB) leukemia): > 100 µM
TGI (CCRF-CEM leukemia): > 100 µM
TGI (SNB-78 CNS): > 100 µM
TGI (OVCAR-5 ovarian): > 100 µM
TGI (RXF 393 renal): > 100 µM
TGI (EKVX NSCLC): > 100 µM

CC(C)c1cccc2sc(NC(=O)C(=O)C(C#N)c3cccc4ccccc34)nc12 (configuration not stated)
TGI (UACC-257 melanoma): > 100 µM
TGI (DMS 114 small cell lung): > 100 µM
TGI (SR leukemia): > 100 µM
TGI (HOP-62 NSCLC): > 100 µM
TGI (MALME-3M melanoma): > 100 µM
TGI (IGROV1 ovarian): > 100 µM
TGI (HCC-2998 colon): > 100 µM
TGI (M14 melanoma): > 100 µM
TGI (OVCAR-8 ovarian): > 100 µM
TGI (U251 CNS): > 100 µM
TGI (KM12 colon): > 100 µM
TGI (SF-268 CNS): > 100 µM
TGI (SNB-19 CNS): > 100 µM
TGI (OVCAR-4 ovarian): > 100 µM
TGI (UO-31 renal): > 100 µM
TGI (A498 renal): > 100 µM
TGI (NCI-H522 lung): > 100 µM
TGI (UACC-62 melanoma): > 100 µM
TGI (DMS 273 small cell lung): > 100 µM
TGI (SK-MEL-28 melanoma): > 100 µM
TGI (NCI-H23 lung): > 100 µM
TGI (SW-620 colon): > 100 µM
TGI (A549 NSCLC): > 100 µM
TGI (TK-10 renal): > 100 µM
TGI (HOP-18 NSCLC): > 100 µM
TGI (M19-MEL melanoma): > 100 µM
TGI (COLO 205 colon): > 100 µM
TGI (SNB-75 CNS): 95.4 µM
TGI (NCI-H460 lung): > 100 µM
TGI (SF-539 CNS): > 100 µM
TGI (HCT-116 colon): > 100 µM
TGI (RXF-631 renal): > 100 µM
TGI (KM20L2 colon): > 100 µM
TGI (SK-MEL-5 melanoma): > 100 µM
TGI (SF-295 CNS): > 100 µM
TGI (HT29 colon): > 100 µM
TGI (CAKI-1 renal): > 100 µM
TGI (NCI-H226 lung): > 100 µM
TGI (SK-MEL-2 melanoma): > 100 µM
TGI (786-0 renal): > 100 µM
TGI (ACHN renal): > 100 µM
TGI (SN12C renal): > 100 µM
TGI (HCT-15 colon): > 100 µM
TGI (MOLT-4 leukemia): > 100 µM
TGI (SK-OV-3 ovarian): > 100 µM
TGI (DLD-1 colon): > 100 µM
TGI (OVCAR-3 ovarian): > 100 µM
TGI (HOP-92 NSCLC): 97.9 µM
TGI (LXFL 529 NSCLC): > 100 µM
TGI (HL-60(TB) leukemia): > 100 µM
TGI (CCRF-CEM leukemia): > 100 µM
TGI (SNB-78 CNS): > 100 µM
TGI (RXF 393 renal): 92.3 µM
TGI (EKVX NSCLC): 67.2 µM

CCOC(=O)NC(=O)c1cn(CCCCCCOC(=O)NCCCCCCNC(=O)OCCCCCCn2cc(C(=O)NC(=O)OCC)c(=O)[nH]c2=O)c(=O)[nH]c1=O
TGI (UACC-257 melanoma): > 100 µM
TGI (DMS 114 small cell lung): > 100 µM
TGI (HOP-62 NSCLC): > 100 µM
TGI (MALME-3M melanoma): > 100 µM
TGI (IGROV1 ovarian): > 100 µM
TGI (HCC-2998 colon): > 100 µM
TGI (LOX IMVI melanoma): > 100 µM
TGI (M14 melanoma): > 100 µM
TGI (RPMI-8226 leukemia): > 100 µM
TGI (OVCAR-8 ovarian): > 100 µM
TGI (U251 CNS): > 100 µM
TGI (KM12 colon): > 100 µM
TGI (SF-268 CNS): > 100 µM
TGI (SNB-19 CNS): > 100 µM
TGI (OVCAR-4 ovarian): > 100 µM
TGI (UO-31 renal): > 100 µM
TGI (A498 renal): > 100 µM
TGI (NCI-H522 lung): > 100 µM
TGI (UACC-62 melanoma): > 100 µM
TGI (DMS 273 small cell lung): > 100 µM
TGI (SK-MEL-28 melanoma): > 100 µM
TGI (SW-620 colon): > 100 µM
TGI (A549 NSCLC): > 100 µM
TGI (HOP-18 NSCLC): > 100 µM
TGI (M19-MEL melanoma): > 100 µM
TGI (COLO 205 colon): > 100 µM
TGI (SNB-75 CNS): > 100 µM
TGI (NCI-H460 lung): > 100 µM
TGI (SF-539 CNS): > 100 µM
TGI (HCT-116 colon): > 100 µM
TGI (RXF-631 renal): > 100 µM
TGI (KM20L2 colon): > 100 µM
TGI (SK-MEL-5 melanoma): > 100 µM
TGI (SF-295 CNS): > 100 µM
TGI (K-562 leukemia): > 100 µM
TGI (HT29 colon): > 100 µM
TGI (CAKI-1 renal): > 100 µM
TGI (NCI-H226 lung): > 100 µM
TGI (SK-MEL-2 melanoma): > 100 µM
TGI (786-0 renal): > 100 µM
TGI (ACHN renal): > 100 µM
TGI (SN12C renal): > 100 µM
TGI (HCT-15 colon): > 100 µM
TGI (MOLT-4 leukemia): > 100 µM
TGI (SK-OV-3 ovarian): > 100 µM
TGI (DLD-1 colon): > 100 µM
TGI (OVCAR-3 ovarian): > 100 µM
TGI (LXFL 529 NSCLC): > 100 µM
TGI (HL-60(TB) leukemia): > 100 µM
TGI (CCRF-CEM leukemia): > 100 µM
TGI (RXF 393 renal): > 100 µM
TGI (EKVX NSCLC): > 100 µM

Source: PubChem BioAssay (NCI)
